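Exposure lasted 48 hours, with cells grown in 96-well plates and compounds tested at five concentrations. The concentration for full growth arrest is given as TGI.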 Bounds are passed on as bounds.

Among the test systems are SN12C renal; A549 NSCLC; SK-MEL-2 melanoma; TK-10 renal; HL-60(TB) leukemia; OVCAR-3 ovarian; SF-539 CNS; NCI-H460 lung.
Assay in all cases: growth of human tumour cells (NCI), 48 h

Consider `COc1ccc2c(C(=O)O)cc3ccccc3c2c1OC`, for which the TGI in the assay with SN12C renal is 53.1 µM; in the assay on A549 NSCLC, more than 100 µM; with SK-MEL-2 melanoma, 94.9 µM; with TK-10 renal it was 33.2 µM; in the assay on HL-60(TB) leukemia, more than 100 µM; in the assay on OVCAR-3 ovarian it was 32.7 µM. Besides, the TGI in the assay with SF-539 CNS came out at 57.7 µM.
As for `O=C1NC(=O)C2C(=O)NC(=O)C1C2Cc1ccco1` (stereo not drawn), the TGI in the assay on SN12C renal, in the assay with A549 NSCLC, in the assay with SK-MEL-2 melanoma, in the assay with TK-10 renal, with HL-60(TB) leukemia and in the assay on OVCAR-3 ovarian was more than 100 µM in each case. Also, the TGI in the assay with SF-539 CNS and in the assay on NCI-H460 lung was more than 100 µM in each case.
For `CC(=O)OCC(=O)[C@@]1(O)CC[C@H]2[C@@H]3C[C@H](C)C4=CC(=O)C=C[C@]4(C)[C@@]3(F)[C@@H](O)C[C@@]21C`, the TGI in the assay on A549 NSCLC, with SK-MEL-2 melanoma, in the assay on TK-10 renal, in the assay on HL-60(TB) leukemia, in the assay on OVCAR-3 ovarian and with SF-539 CNS was more than 100 µM each time. The compound further showed a TGI with NCI-H460 lung of more than 100 µM.
Take `COc1ccc2ccccc2c1C1=NC(C)(C)CO1`: the TGI with SN12C renal, in the assay with A549 NSCLC, with SK-MEL-2 melanoma, in the assay on TK-10 renal, in the assay with HL-60(TB) leukemia and in the assay on OVCAR-3 ovarian was more than 100 µM in each case. The TGI with SF-539 CNS and in the assay with NCI-H460 lung was more than 100 µM each time.
For the compound `c1ccc(C(c2ccccc2)c2ccccn2)cc1`, the TGI with SN12C renal, with A549 NSCLC, with SK-MEL-2 melanoma, in the assay with TK-10 renal, with OVCAR-3 ovarian and in the assay on SF-539 CNS was more than 100 µM each time. In the assay on NCI-H460 lung, this compound gave a TGI of more than 100 µM.
On to `O=C(CCCC(=O)Nc1ccc(Cl)cc1Cl)CC(=O)c1ccc2ccccc2c1`, for which the TGI in the assay with SN12C renal, in the assay with A549 NSCLC, in the assay on SK-MEL-2 melanoma, in the assay with TK-10 renal, with HL-60(TB) leukemia and with OVCAR-3 ovarian was more than 100 µM each time. Besides, the TGI with SF-539 CNS and in the assay with NCI-H460 lung was more than 100 µM each time.
With `Nc1nc(=S)c2c(ncn2CCO)[nH]1`, the TGI in the assay with SN12C renal, with A549 NSCLC, in the assay on SK-MEL-2 melanoma, in the assay with TK-10 renal, in the assay with HL-60(TB) leukemia and in the assay with OVCAR-3 ovarian was more than 100 µM in each case. Also, the TGI in the assay on SF-539 CNS and in the assay on NCI-H460 lung was more than 100 µM each time.
Regarding `O=C1CC(c2ccc(Cl)cc2)=Nc2ccccc2N1`, the TGI was more than 100 µM in the assay with SN12C renal; more than 100 µM in the assay with A549 NSCLC; more than 100 µM in the assay on SK-MEL-2 melanoma; more than 100 µM with TK-10 renal; 57.6 µM in the assay on HL-60(TB) leukemia; more than 100 µM in the assay on OVCAR-3 ovarian. For the same compound, the TGI with SF-539 CNS and with NCI-H460 lung was more than 100 µM throughout.
As for `O=C1N[C@@H]2CCCC[C@@H]2C12CCCCC2`, the TGI in the assay with SN12C renal, with A549 NSCLC, with TK-10 renal, in the assay with HL-60(TB) leukemia, in the assay on OVCAR-3 ovarian and with SF-539 CNS was more than 100 µM each time. This compound yielded a TGI in the assay on NCI-H460 lung of more than 100 µM.
For `COC(=O)C1=C(C(=O)OC)C2(c3ccccc3)OC1(c1ccccc1)c1cc3ccccc3cc12`, the TGI was 4.18 µM with SN12C renal; 5.32 µM in the assay on A549 NSCLC; 3.13 µM in the assay with SK-MEL-2 melanoma; 3.56 µM with TK-10 renal; 1.84 µM with HL-60(TB) leukemia; 2.68 µM with OVCAR-3 ovarian. In addition, the values for the TGI in the assay with SF-539 CNS and in the assay on NCI-H460 lung were 3.03 µM and 11.9 µM, respectively.
Turning to `COc1cc(/C=C/c2csnn2)cc(OC)c1OC`, the TGI in the assay with SN12C renal, in the assay with A549 NSCLC, in the assay on SK-MEL-2 melanoma, in the assay with TK-10 renal, in the assay on HL-60(TB) leukemia and with OVCAR-3 ovarian was more than 100 µM in each case. The TGI with SF-539 CNS and in the assay on NCI-H460 lung was more than 100 µM each time.
As to `CCCCCCCCOCC(COC(=O)CCCCCCC)OC(=O)CCCCCCC` (stereo not drawn), the TGI in the assay on SN12C renal, in the assay on A549 NSCLC, with TK-10 renal, with HL-60(TB) leukemia, in the assay with OVCAR-3 ovarian and in the assay on NCI-H460 lung was more than 100 µM each time.
On to `CC(=O)Nc1ccc(C2CC(c3ccc([N+](=O)[O-])cc3)=Nc3ccccc3S2=O)cc1` (stereo not drawn), for which the TGI in the assay on SN12C renal was 72.2 µM; in the assay on A549 NSCLC, more than 100 µM; in the assay with SK-MEL-2 melanoma it was more than 100 µM; with TK-10 renal it was 64.7 µM; with HL-60(TB) leukemia, 42.2 µM; with OVCAR-3 ovarian it was 54.7 µM. For the same compound, the TGI in the assay with SF-539 CNS is 70.2 µM; in the assay with NCI-H460 lung it was 47.9 µM.
As for `CCOC(=O)c1ccc(N=Nc2ccc(N(CCC#N)CCC#N)cc2C)cc1`, the TGI with SN12C renal, with A549 NSCLC, in the assay on SK-MEL-2 melanoma, with TK-10 renal, in the assay with HL-60(TB) leukemia and with OVCAR-3 ovarian was more than 100 µM in each case. This compound returned a TGI in the assay with SF-539 CNS of more than 100 µM.
Consider `O=NN(CCCl)C(=O)NC1CCC(CC(=O)O)CC1` (stereo not drawn), for which the TGI in the assay on SN12C renal, with A549 NSCLC, with SK-MEL-2 melanoma, with TK-10 renal, in the assay with HL-60(TB) leukemia and in the assay with OVCAR-3 ovarian was more than 100 µM throughout. Also, the TGI in the assay with SF-539 CNS and in the assay with NCI-H460 lung was more than 100 µM in each case.
Take `CC12OC(=O)C(C#N)C1(C)C1C(=O)CCCC12` (stereo not drawn): the TGI in the assay with SN12C renal, in the assay with A549 NSCLC, in the assay with SK-MEL-2 melanoma, with TK-10 renal, in the assay with HL-60(TB) leukemia and in the assay on OVCAR-3 ovarian was more than 100 µM in each case. Moreover, the TGI in the assay on SF-539 CNS and with NCI-H460 lung was more than 100 µM each time.
For the compound `C[C@H](C(=O)O)C(=O)NC(=O)N(Cc1ccccc1)N=O`, the TGI with SN12C renal, in the assay on A549 NSCLC, in the assay with SK-MEL-2 melanoma, in the assay on TK-10 renal, with OVCAR-3 ovarian and in the assay with SF-539 CNS was more than 100 µM in each case. The compound also returned a TGI in the assay on NCI-H460 lung of more than 100 µM.

These data come from PubChem BioAssay (NCI).
